Assay results as given in patent EP0856511B1, “Calcium salt of indomethacin pentahydrate and its preparation” (Promindus (Actions Promotionnelles dans l'Industrie et le …, priority 1997, dated 1998).

How the values were obtained:
[1] = Effective dose 50 % (DE50) per os in the rat; format: in vivo
Source text: (§1) En effet, les comparaisons respectives des DE50 (dose efficace 50 %) et DL50 (dose léthale 50 %) per os, chez le rat, de ladite indométacine calcique pentahydratée et de ladite indométacine libre sont nettement à l'avantage de ladite indométacine calcique.

[2] = Lethal dose 50 % (DL50) per os in the rat; format: in vivo
Source text: as §1

[3] = in vivo
[4] = Solubility description in water and organic solvents; format: physicochemical

Row | Molecule | ED50 ([1]; po, dose efficace 50 %, per os, rat) [mg/kg] | LD50 ([2]; in vivo, po, dose léthale 50 %, per os, rat) [mg/kg] | activité pharmacologique ([1]; compared with the acid form) | DE50 ([1]; dose efficace 50 %, per os, rat) | DL50 ([2]; dose léthale 50 %, per os, rat) [mg/kg] | toxicité par voie orale ([2]; par voie orale, compared with the acid form) | Index thérapeutique : DL50/DE50 ([2]; per os, rat, ratio DL50/DE50) | tolérance locale par voie rectale [3] | solubilité dans l'acétonitrile [4] | solubilité dans l'eau [4] | solubilité dans l'éther [4] | solubilité dans le chloroforme ([4]; chloroforme) | solubilité dans le diméthylformamide ([4]; diméthylformamide) | solubilité dans le tétrahydrofuranne ([4]; tétrahydrofuranne)
1 | COc1ccc2c(c1)c(CC(=O)O)c(C)n2C(=O)c1ccc(Cl)cc1 [Indométacine, acide 1-(p-chlorobenzoyl)-5-méthoxy-2-méthylindole-3-acétique, reference compound] | 3 | 28 |  |  |  |  |  |  |  |  |  |  |  | 
2 | indométacine calcique pentahydratée |  |  | équivalente | 2,5 mg/kg | 45 | une toxicité diminuée | 18 | une meilleure tolérance locale | pratiquement insoluble | pratiquement insoluble | pratiquement insoluble | pratiquement insoluble | facilement soluble | soluble
